The test system of one test is IL-6. Nature of the test: LPS-stimulated whole bovine blood assay, MSD cytokine detection. As to conditions: Bos taurus, LPS-stimulated bovine whole blood; read-out: IL-6 (IC50 μM). In kind it is cell-based. The source says: In order to correlate RNA sequencing data to cytokine changes the whole blood assay was utilized. […] The enhancement result represents an overall stimulation of cytokine levels due to cellular stress or potential toxicity with increasing concentrations of the compound, representing a typical bell shape response curve for immunomodulatory activity.

For test [1], the system named is BRD pathogens, M. haemolytica and P. multocida. Nature of the test: MIC screening panel of BRD pathogens (antibacterial / non-antibacterial).
In the next test the test system is IL-1β. Nature of the test: LPS-stimulated whole bovine blood assay, MSD cytokine detection. The test is classed as cell-based. As to conditions: overstimulation of IL-1β, LPS-stimulated bovine whole blood.
The subject of the next test is TNF-α. The test is described as above. As to conditions: Bos taurus, LPS-stimulated bovine whole blood; read-out: TNF-α (IC50 μM). In kind it is cell-based.
Setting [2] is: read-out: antibacterial / non-antibacterial (MIC for the BRD pathogens).

Like-named read-outs stand apart in the source and are kept apart here. Bounds are passed on as bounds.

The results in this text go back to patent publication US12295936B2, “Immunomodulating urea azalides” (Zoetis Services LLC, priority 2020, dated 2025).

Take `CC[C@H]1OC(=O)[C@H](C)[C@@H](O[C@H]2C[C@@](C)(OC)[C@](O)(CNCC(C)C)[C@H](C)O2)[C@H](C)[C@@H](O[C@@H]2O[C@H](C)C[C@H](N(C)C(=O)N(C)c3ccccc3)[C@H]2O)[C@](C)(O)C[C@@H](C)CN[C@H](C)[C@@H](O)[C@]1(C)O` [Example H-24, 1-((2S,3R,4S,6R)-2-(((2R,3S,4R,5R,8R,10R,11R,12S,13S,14R)-2-ethyl-3,4,10-trihydroxy-13-(((2R,4R,5S,6S)-5-hydroxy-5-((isobutylamino)methyl)-4-methoxy-4,6-dimethyltetrahydro-2H-pyran-2-yl)oxy)-3,5,8,10,12,14-hexamethyl-15-oxo-1-oxa-6-azacyclopentadecan-11-yl)oxy)-3-hydroxy-6-methyltetrahydro-2H-pyran-4-yl)-1,3-dimethyl-3-phenylurea]: the IC50 in the test with IL-6 worked out at 30 µM; in the test on TNF-α, 23 µM. For the same molecule, the MIC in test [1] (setting [2]) is greater than 64 µg/mL. Also, the “IL-1β OS of LPS” value with IL-1β was determined as 16 µM.
As to `CCCNC[C@]1(O)[C@H](C)O[C@@H](O[C@H]2[C@H](C)[C@@H](O[C@@H]3O[C@H](C)C[C@H](N(C)C(=O)N(C)c4ccccc4)[C@H]3O)[C@](C)(O)C[C@@H](C)CN(CCC)[C@H](C)[C@@H](O)[C@](C)(O)[C@@H](CC)OC(=O)[C@@H]2C)C[C@@]1(C)OC` [Example H-102, 1-((2S,3R,4S,6R)-2-(((2R,3S,4R,5R,8R,10R,11R,12S,13S,14R)-2-ethyl-3,4,10-trihydroxy-13-(((2R,4R,5S,6S)-5-hydroxy-4-methoxy-4,6-dimethyl-5-((propylamino)methyl)tetrahydro-2H-pyran-2-yl)oxy)-3,5,8,10,12,14-hexamethyl-15-oxo-6-propyl-1-oxa-6-azacyclopentadecan-11-yl)oxy)-3-hydroxy-6-methyltetrahydro-2H-pyran-4-yl)-1,3-dimethyl-3-phenylurea], the figures for the IC50 in the test on IL-6 and in the test on TNF-α were 11 µM and 8 µM, respectively. Also, in test [1] (setting [2]), the MIC is greater than 64 µg/mL. For the same molecule, in the test on IL-1β, the “IL-1β OS of LPS” value amounted to 8 µM.
In the case of `CC[C@H]1OC(=O)[C@H](C)[C@@H](O[C@H]2C[C@@](C)(OC)[C@](O)(CN=[N+]=[N-])[C@H](C)O2)[C@H](C)[C@@H](O[C@@H]2O[C@H](C)C[C@H](N(C)C(=O)N(C)c3ccccc3)[C@H]2O)[C@](C)(O)C[C@@H](C)CN[C@H](C)[C@@H](O)[C@]1(C)O` [Example F-2, 1-((2S,3R,4S,6R)-2-(((2R,3S,4R,5R,8R,10R,11R,12S,13S,14R)-13-(((2R,4R,5S,6S)-5-(azidomethyl)-5-hydroxy-4-methoxy-4,6-dimethyltetrahydro-2H-pyran-2-yl)oxy)-2-ethyl-3,4,10-trihydroxy-3,5,8,10,12,14-hexamethyl-15-oxo-1-oxa-6-azacyclopentadecan-11-yl)oxy)-3-hydroxy-6-methyltetrahydro-2H-pyran-4-yl)-1,3-dimethyl-3-phenylurea], the results for the IC50 in the test on IL-6 and with TNF-α were 30 µM and 11 µM, respectively. The MIC in test [1] (setting [2]) was greater than 64 µg/mL. Moreover, the “IL-1β OS of LPS” value in the test with IL-1β came to 40 µM.
On the same counts, the results for `CCCNC[C@]1(O)[C@H](C)O[C@@H](O[C@H]2[C@H](C)[C@@H](O[C@@H]3O[C@H](C)C[C@H](N(CCC)C(=O)N(C)c4ccc(C(F)(F)F)cc4)[C@H]3O)[C@](C)(O)C[C@@H](C)CN[C@H](C)[C@@H](O)[C@](C)(O)[C@@H](CC)OC(=O)[C@@H]2C)C[C@@]1(C)OC` [Example H-8, 1-((2S,3R,4S,6R)-2-(((2R,3S,4R,5R,8R,10R,11R,12S,13S,14R)-2-ethyl-3,4,10-trihydroxy-13-(((2R,4R,5S,6S)-5-hydroxy-4-methoxy-4,6-dimethyl-5-((propylamino)methyl)tetrahydro-2H-pyran-2-yl)oxy)-3,5,8,10,12,14-hexamethyl-15-oxo-1-oxa-6-azacyclopentadecan-11-yl)oxy)-3-hydroxy-6-methyltetrahydro-2H-pyran-4-yl)-3-methyl-1-propyl-3-(4-(trifluoromethyl)phenyl)urea] are 5 µM, 6 µM, greater than 64 µg/mL and 1 µM.
Turning to `CC[C@H]1OC(=O)[C@H](C)[C@@H](O[C@H]2C[C@@](C)(OC)[C@](O)(CNCCC3CCOCC3)[C@H](C)O2)[C@H](C)[C@@H](O[C@@H]2O[C@H](C)C[C@H](N(C)C(=O)N(C)c3ccccc3)[C@H]2O)[C@](C)(O)C[C@@H](C)CN[C@H](C)[C@@H](O)[C@]1(C)O` [Example H-33, 1-((2S,3R,4S,6R)-2-(((2R,3S,4R,5R,8R,10R,11R,12S,13S,14R)-2-ethyl-3,4,10-trihydroxy-13-(((2R,4R,5S,6S)-5-hydroxy-4-methoxy-4,6-dimethyl-5-(((2-(tetrahydro-2H-pyran-4-yl)ethyl)amino)methyl)tetrahydro-2H-pyran-2-yl)oxy)-3,5,8,10,12,14-hexamethyl-15-oxo-1-oxa-6-azacyclopentadecan-11-yl)oxy)-3-hydroxy-6-methyltetrahydro-2H-pyran-4-yl)-1,3-dimethyl-3-phenylurea], the IC50 is 57 µM in the test on IL-6 and 37 µM in the test on TNF-α. Besides, the MIC in test [1] (setting [2]) is greater than 64 µg/mL. For the same molecule, the “IL-1β OS of LPS” value in the test on IL-1β was 6 µM.
For `CC[C@H]1OC(=O)[C@H](C)[C@@H](O[C@H]2C[C@@](C)(OC)[C@](O)(CN3CCC(S(C)(=O)=O)CC3)[C@H](C)O2)[C@H](C)[C@@H](O[C@@H]2O[C@H](C)C[C@H](N(C)C(=O)N(C)c3ccccc3)[C@H]2O)[C@](C)(O)C[C@@H](C)CN[C@H](C)[C@@H](O)[C@]1(C)O` [Example J-21, 1-((2S,3R,4S,6R)-2-(((2R,3S,4R,5R,8R,10R,11R,12S,13S,14R)-2-ethyl-3,4,10-trihydroxy-13-(((2R,4R,5S,6S)-5-hydroxy-4-methoxy-4,6-dimethyl-5-((4-(methylsulfonyl)piperidin-1-yl)methyl)tetrahydro-2H-pyran-2-yl)oxy)-3,5,8,10,12,14-hexamethyl-15-oxo-1-oxa-6-azacyclopentadecan-11-yl)oxy)-3-hydroxy-6-methyltetrahydro-2H-pyran-4-yl)-1,3-dimethyl-3-phenylurea], the IC50 was 75 µM in the test with IL-6 and 65 µM in the test with TNF-α. The MIC in test [1] (setting [2]) was greater than 64 µg/mL. Also, the “IL-1β OS of LPS” value with IL-1β worked out at 20 µM.
As to `CC[C@H]1OC(=O)[C@H](C)[C@@H](O[C@H]2C[C@@](C)(OC)[C@](O)(CN3CCC(F)(F)CC3)[C@H](C)O2)[C@H](C)[C@@H](O[C@@H]2O[C@H](C)C[C@H](N(C)C(=O)N(C)c3ccccc3)[C@H]2O)[C@](C)(O)C[C@@H](C)CN[C@H](C)[C@@H](O)[C@]1(C)O` [Example J-17, 1-((2S,3R,4S,6R)-2-(((2R,3S,4R,5R,8R,10R,11R,12S,13S,14R)-13-(((2R,4R,5S,6S)-5-((4,4-difluoropiperidin-1-yl)methyl)-5-hydroxy-4-methoxy-4,6-dimethyltetrahydro-2H-pyran-2-yl)oxy)-2-ethyl-3,4,10-trihydroxy-3,5,8,10,12,14-hexamethyl-15-oxo-1-oxa-6-azacyclopentadecan-11-yl)oxy)-3-hydroxy-6-methyltetrahydro-2H-pyran-4-yl)-1,3-dimethyl-3-phenylurea], the IC50 was determined as 25 µM with IL-6 and 14 µM in the test on TNF-α. Also, the MIC in test [1] (read-out: MIC ≤64 μg/mL for at least one of the bacterial strains (flag * at Ex #)) is less than 64 µg/mL. Further, in the test on IL-1β, the “IL-1β OS of LPS” value came to 40 µM.
Turning to `CC[C@H]1OC(=O)[C@H](C)[C@@H](O[C@H]2C[C@@](C)(OC)[C@](O)(Cn3ccnc3)[C@H](C)O2)[C@H](C)[C@@H](O[C@@H]2O[C@H](C)C[C@H](N(C)C(=O)N(C)c3ccccc3)[C@H]2O)[C@](C)(O)C[C@@H](C)CN[C@H](C)[C@@H](O)[C@]1(C)O` [Example J-24, 1-((2S,3R,4S,6R)-2-(((2R,3S,4R,5R,8R,10R,11R,12S,13S,14R)-13-(((2R,4R,5S,6S)-5-((1H-imidazol-1-yl)methyl)-5-hydroxy-4-methoxy-4,6-dimethyltetrahydro-2H-pyran-2-yl)oxy)-2-ethyl-3,4,10-trihydroxy-3,5,8,10,12,14-hexamethyl-15-oxo-1-oxa-6-azacyclopentadecan-11-yl)oxy)-3-hydroxy-6-methyltetrahydro-2H-pyran-4-yl)-1,3-dimethyl-3-phenylurea], the IC50 worked out at 99 µM in the test on IL-6 and 31 µM with TNF-α. Further, in test [1] (setting [2]), the MIC is greater than 64 µg/mL. In addition, in the test with IL-1β, the “IL-1β OS of LPS” value was 100 µM.
Regarding `CCCNC[C@]1(O)[C@H](C)O[C@@H](O[C@H]2[C@H](C)[C@@H](O[C@@H]3O[C@H](C)C[C@H](N(C)C(=O)N(C)c4ccncc4)[C@H]3O)[C@](C)(O)C[C@@H](C)CN[C@H](C)[C@@H](O)[C@](C)(O)[C@@H](CC)OC(=O)[C@@H]2C)C[C@@]1(C)OC` [Example H-59, 1-((2S,3R,4S,6R)-2-(((2R,3S,4R,5R,8R,10R,11R,12S,13S,14R)-2-ethyl-3,4,10-trihydroxy-13-(((2R,4R,5S,6S)-5-hydroxy-4-methoxy-4,6-dimethyl-5-((propylamino)methyl)tetrahydro-2H-pyran-2-yl)oxy)-3,5,8,10,12,14-hexamethyl-15-oxo-1-oxa-6-azacyclopentadecan-11-yl)oxy)-3-hydroxy-6-methyltetrahydro-2H-pyran-4-yl)-1,3-dimethyl-3-(pyridin-4-yl)urea], the IC50 in the test on IL-6 turned out to be 30 µM; in the test with TNF-α, 9 µM. The MIC in test [1] (setting [2]) is greater than 64 µg/mL. Besides, the “IL-1β OS of LPS” value with IL-1β worked out at 16 µM.
